Reference: paper PMC9697187 (Viruses, 2022)
Where two headings read alike, the source gives them in different places.

How the values were obtained:
[1] = tested on: FIPV serotype I (Black I); assay: Colorimetric CPE bioassay; type: cell-based, feline infectious peritonitis virus (FIPV); conditions: for EC50: read-out: EC50 against Black I (serotype I FIPV)
[2] = tested on: FIPV serotype II (WSU-79-1146); assay: Combined anticoronaviral therapy; type: cell-based, feline infectious peritonitis virus (FIPV); conditions: WSU-79-1146, CRFK cells, alone and combined determined concurrently
FIPV II = conditions: cited from earlier work
[3] = tested on: feline infectious peritonitis (FIP); conditions: cited from earlier work; for Cats clinically cured of FIP: retrospective study, treated with either GC376 or GS-441524
[4] = tested on: FIPV serotype II (WSU-79-1146); assay: Colorimetric CPE bioassay; type: cell-based, feline infectious peritonitis virus (FIPV); conditions: for EC50: read-out: EC50 against WSU-79-1146 (serotype II FIPV)
in vivo = assay: in vivo; parameters: species or system cat; conditions: male; for Cmax: Cmax of GS-441524
[5] = parameters: method as in not printed at the place; conditions: read-out: Cmax of GS-441524; subcutaneously administered at 5 mg/kg, cats; ref not given; cited from earlier work
[6] = Single dose pharmacokinetics of orally administered MPV in SPF cats; type: in vivo, cat
CEM/C1 human cell line = conditions: cited from earlier work
CRFK cells = conditions: cited from earlier work
[7] = FCWF-4 CU cells, MOI 0.1, 72 h, monotherapy
[8] = clinical trial, naturally occurring FIP
[9] = Alphacoronavirus 1, FCWF-4 CU cells, MOI 0.1, 72 h, monotherapy
[10] = owner survey, unlicensed GS-441524
[11] = Alphacoronavirus 1, read-out: EC50, combination experiment (A) nirmatrelvir and MPV
[12] = male, serum, po, 10 mg/kg, 10 mg/kg oral molnupiravir, mean of 3 cats
[13] = serum MPV, 10 mg/kg oral molnupiravir, mean of 3 cats, 10 mg/kg
[14] = Alphacoronavirus 1, CRFK cells, MOI 0.1, 72 h, monotherapy
[15] = Alphacoronavirus 1, read-out: EC50, combination experiment (C) remdesivir and nirmatrelvir

CC(C)C[C@H](NC(=O)OCc1ccccc1)C(=O)N[C@@H](CC1CCNC1=O)C(O)S(=O)(=O)O (stereo partly shown) [GC376]
EC50 [1, 7]: 0.01 µM
EC50 ([2]; read-out: EC50, combination experiment (B) GC376 and remdesivir): 0.406 µM
EC50 (FIPV II; prior study, read-out: EC50 against FIPV II): 0.9 µM

CC(C)C[C@H](NC(=O)OCc1ccccc1)C(=O)N[C@@H](C[C@@H]1CCNC1=O)C(O)S(=O)(=O)[O-].[Na+] (stereo partly shown) [GC376]
Cats in remission [3, 8]: seven of the 20
Cats clinically cured of FIP [3]: 29 of 30

N#C[C@@]1(c2ccc3c(N)ncnn23)O[C@H](CO)[C@@H](O)[C@H]1O [GS-441524]
EC50 [1, 9]: 0.02 µM
EC50 ([4]; Alphacoronavirus 1, CRFK, 72 h): 0.61 µM
concentration at 24 h (in vivo; cat, GS-441524 remaining in plasma 24 h post-treatment): 0.22 to 2 µM
AUC(0-t) (in vivo; iv, 7 mg/kg, AUC0-24 of GS-441524): 45 µM·h
Cmax (in vivo; iv, 7 mg/kg): 6.9 µM
AUC(0-t) (in vivo; po, 25 mg/kg, AUC (AUC0-24) of GS-441524): 89.7 µg·h/mL
Cmax (in vivo; po, 25 mg/kg): 13.3 µg/mL
half-life (in vivo; po, 25 mg/kg, T1/2 of GS-441524): 4.5 h
Cats healthy and disease free at the time of publication [3, 8]: 25 of 31
Cats with successful resolution of disease ([3]; neurological FIP, escalating dose): 3 of 4
Cats with neurological or ocular signs successfully treated ([3]; owner survey responses): 161 of 169
Cats alive at the time of publication ([3]; owner survey, unlicensed GS-441524, n = 380): 96.7%
Cats considered cured [3, 10]: 54.0%
Cats still being monitored in the 12-week observation period [3, 10]: 43.3%
Cats clinically cured of FIP [3]: 29 of 30
EC50 (FIPV II; previously reported, read-out: EC50 against serotype II FIPV): 0.78 µM
Cmax [5]: ~10 µM

CC(C)C(=O)OC[C@H]1O[C@@H](n2ccc(NO)nc2=O)[C@H](O)[C@@H]1O [MPV, molnupiravir]
EC50 [1, 9]: 0.016 µM
EC50 ([4]; Alphacoronavirus 1, CRFK, 72 h): 0.7 µM
EC50 [2, 11]: 0.693 µM
Detection of MPV in serum over 24 h ([6]; 10 mg/kg oral MPV): not detected after the 12-h time point
Peak detection time point in serum, aggregate of three cats ([6]; 10 mg/kg oral MPV, Figure 3B): approximately 1.5 h
CL/F [6, 12]: 347 L/h/kg
MRT [6, 12]: 4.6 h
AUC(0-t) ([6]; male, serum, po, 10 mg/kg, 10 mg/kg oral molnupiravir, mean of 3 cats, read-out: AUC0-t of MPV): 0.085 µM·h
Vd/F ([6]; male, serum, po, 10 mg/kg, 10 mg/kg oral molnupiravir, mean of 3 cats, read-out: Vz/F of MPV): 881 L/kg
AUC ([6]; male, serum, po, 10 mg/kg, serum MPV, 10 mg/kg oral molnupiravir, individual cat): 0.0396 µg·h/mL
AUC(0-t) ([6]; male, serum, po, 10 mg/kg, serum MPV, 10 mg/kg oral molnupiravir, mean of 3 cats, read-out: AUC (AUC0-t) of MPV): 0.0275 µg·h/mL
AUC (AUC0-t) of MPV [6, 13]: 0.0275 µg·h/mL
Cmax [6, 13]: 0.04 µM
Cmax of MPV [6, 13]: 0.0142 µg/mL

O=c1nc(NO)ccn1[C@@H]1O[C@H](CO)[C@@H](O)[C@H]1O [NHC, β-D-N^4-hydroxycytidine]
EC50 [1, 7]: 0.05 µM
EC50 against Black I expressed as ([1]; equivalent of 0.05 μM): 0.0129 mg/L
EC50 ([4]; CRFK cells, MOI 0.1, 72 h, monotherapy): 0.11 µM
Serum exposure relative to the NHC EC50 ([6]; in vivo): greater than the NHC EC50
Kel of NHC ([6]; in vivo, po, 10 mg/kg): 0.2 h⁻¹
CC50 (CEM/C1 human cell line): 7.5 µM
Cytotoxicity in CRFK cells (CRFK cells): cytotoxicity has also been documented

CCC(CC)COC(=O)[C@H](C)N[P@](=O)(OC[C@H]1O[C@@](C#N)(c2ccc3c(N)ncnn23)[C@H](O)[C@@H]1O)Oc1ccccc1 [RDV, remdesivir]
EC50 [1, 9]: 0.03 µM
EC50 [4, 14]: 0.18 µM
EC50 ([2]; Alphacoronavirus 1, read-out: EC50, combination experiment (B) GC376 and remdesivir): 0.181 µM
EC50 [2, 15]: 6.42 µM

CC(C)(C)[C@H](NC(=O)C(F)(F)F)C(=O)N1C[C@H]2[C@@H]([C@H]1C(=O)N[C@H](C#N)C[C@@H]1CCNC1=O)C2(C)C [nirmatrelvir]
EC50 ([1]; Alphacoronavirus 1, 72 h): 0.016 µM
EC50 [4, 14]: 1.31 µM
Differential efficacy, EC50 for FIPV I relative to FIPV II ([4]; Black I vs WSU-79-1146): ~100 fold
EC50 [2, 11]: 1.31 µM
EC50 [2, 15]: 2.94 µM
